Reference: ChEMBL document CHEMBL5108051, “Improving the Antimicrobial Performance of Amphiphilic Cationic Antimicrobial Peptides Using Glutamic Acid Full-Scan and Positive Charge Compensation Strategies” (J Med Chem, 2022)
In brackets after ≈: the same amount, converted by molar mass. Activity calls are given as the source filed them. The rule behind the calls is not given here. Square brackets hold non-standard residues; d marks the D form. Peptide text beside a SMILES is read from it. ξ: configuration not given here. Ile(3ξ) = CCC(C)[C@H](N)C(=O)O; ξK = NCCCCC(N)C(=O)O

Experiments:
[1] = system: Bacillus subtilis; test: Antibacterial activity against Bacillus subtilis ATCC 23857 assessed as growth inhibition measured after 18 to 24 hrs by CLSI based broth microdilution method; assay type: functional; conditions: time 18-24 hrs
[2] = system: Erythrocyte; test: Hemolytic activity against mouse RBC measured after 1 hrs; assay type: toxicity, cell-based
[3] = system: Pseudomonas aeruginosa; test: Antibacterial activity against Pseudomonas aeruginosa ATCC 27853 assessed as growth inhibition measured after 18 to 24 hrs by CLSI based broth microdilution method; assay type: functional; conditions: time 18-24 hrs
[4] = system: Escherichia coli; test: Antibacterial activity against Escherichia coli ATCC 25922 assessed as growth inhibition measured after 18 to 24 hrs by CLSI based broth microdilution method; assay type: functional; conditions: time 18-24 hrs
[5] = system: Klebsiella pneumoniae; test: Antibacterial activity against Klebsiella pneumoniae ATCC 700603 assessed as growth inhibition measured after 18 to 24 hrs by CLSI based broth microdilution method; assay type: functional; conditions: time 18-24 hrs
[6] = system: Staphylococcus aureus; test: Antibacterial activity against Staphylococcus aureus ATCC 25923 assessed as growth inhibition measured after 18 to 24 hrs by CLSI based broth microdilution method; assay type: functional; conditions: time 18-24 hrs
[7] = system: Staphylococcus aureus; test: Antimicrobial activity against Staphylococcus aureus ATCC 25923 in presence of KCl; assay type: functional, organism-based
[8] = system: Escherichia coli; test: Antibacterial activity against Escherichia coli ATCC 25922 assessed as fold increase in MIC measured after 15 passages by resistance development assay relative to control; assay type: functional
[9] = system: Staphylococcus aureus; test: Antibacterial activity against Staphylococcus aureus ATCC 25923 assessed as fold increase in MIC measured after 15 passages by resistance development assay; assay type: functional
[10] = system: Staphylococcus aureus; test: Antimicrobial activity against Staphylococcus aureus ATCC 25923 in presence of NaCl; assay type: functional, organism-based
[11] = system: Staphylococcus aureus; test: Antimicrobial activity against Staphylococcus aureus ATCC 25923 in presence of FeCl3; assay type: functional, organism-based
[12] = system: Cell membrane; test: Induction of cell membrane disruption in Staphylococcus aureus ATCC 25923 assessed as increase in PI uptake measured after 30 to 120 mins by propidium iodide staining based FACS flow cytometry analysis (reference value: 15%); assay type: subcellular; conditions: time 30-120 min
[13] = system: Cell membrane; test: Induction of cell membrane disruption in Escherichia coli ATCC 25922 assessed as increase in PI uptake measured after 30 to 120 mins by propidium iodide staining based FACS flow cytometry analysis (reference value: 6.0 %); assay type: subcellular; conditions: time 30-120 min
[14] = Stability of compound in serum measured after 1 to 6 hrs by RP-HPLC analysis; assay type: ADME, cell-free; conditions: time 1-6 hrs
[15] = system: Staphylococcus aureus; test: Antimicrobial activity against Staphylococcus aureus ATCC 25923 in presence of MgCl2; assay type: functional, organism-based

CC(C)C[C@H](NC(=O)[C@H](CC(C)C)NC(=O)C(CCCCN)NC(=O)[C@H](CCC(=O)O)NC(=O)[C@H](CC(C)C)NC(=O)[C@H](CC(C)C)NC(=O)[C@H](CCCCN)NC(=O)[C@H](CCCCN)NC(=O)[C@@H](NC(=O)[C@H](CCCCN)NC(=O)[C@@H]1CCCN1C(=O)[C@H](CC(C)C)NC(=O)[C@@H](N)Cc1ccccc1)C(C)C)C(N)=O (some centres not stated) (H-FLPKVKKLLE[ξK]LL-NH2)
MIC [1]: 32 µM (≈ 50.2 µg/mL)
MHC10 [2]: > 256 µM
MIC [3]: 16 µM (≈ 25.1 µg/mL)
MIC [4]: 8 µM (≈ 12.5 µg/mL)
MIC [5]: 16 µM (≈ 25.1 µg/mL)
MIC [6]: 32 µM (≈ 50.2 µg/mL)

CC(C)C[C@H](NC(=O)[C@H](CC(C)C)NC(=O)[C@H](CCC(=O)O)NC(=O)[C@H](CCCCN)NC(=O)[C@H](CC(C)C)NC(=O)[C@H](CC(C)C)NC(=O)[C@H](CCCCN)NC(=O)[C@H](CCCCN)NC(=O)[C@@H](NC(=O)[C@H](CCCCN)NC(=O)[C@@H]1CCCN1C(=O)[C@H](CC(C)C)NC(=O)[C@@H](N)Cc1ccccc1)C(C)C)C(N)=O (H-FLPKVKKLLKELL-NH2)
MIC [1]: 8 µM (≈ 12.5 µg/mL)
MHC10 [2]: > 256 µM
MIC [3]: 16 µM (≈ 25.1 µg/mL)
MIC [4]: 16 µM (≈ 25.1 µg/mL)
MIC [5]: 16 µM (≈ 25.1 µg/mL)
MIC [6]: 32 µM (≈ 50.2 µg/mL)

CC(C)C[C@H](NC(=O)[C@H](CC(C)C)NC(=O)[C@H](CCC(=O)O)NC(=O)[C@H](CO)NC(=O)[C@H](CC(C)C)NC(=O)[C@H](CC(C)C)NC(=O)[C@H](CCCCN)NC(=O)[C@H](CCCCN)NC(=O)[C@@H](NC(=O)[C@H](CCCCN)NC(=O)[C@@H]1CCCN1C(=O)[C@H](CC(C)C)NC(=O)[C@@H](N)Cc1ccccc1)C(C)C)C(N)=O (H-FLPKVKKLLSELL-NH2)
MIC [1]: 16 µM (≈ 24.4 µg/mL)
MHC10 [2]: > 256 µM
MIC [3]: 32 µM (≈ 48.9 µg/mL)
MIC [4]: 32 µM (≈ 48.9 µg/mL)
MIC [5]: 64 µM (≈ 97.7 µg/mL)
MIC [6]: 64 µM (≈ 97.7 µg/mL)

CCC(C)[C@H](NC(=O)[C@@H]1CCCN1C(=O)[C@H](CC(C)C)NC(=O)[C@@H](N)Cc1ccccc1)C(=O)N[C@H](C(=O)N[C@@H](C)C(=O)N[C@@H](CCCCN)C(=O)N[C@@H](CC(C)C)C(=O)N[C@@H](CC(C)C)C(=O)N[C@@H](CO)C(=O)N[C@@H](CCCCN)C(=O)N[C@@H](CC(C)C)C(=O)N[C@@H](CC(C)C)C(N)=O)C(C)C (some centres not stated) (H-FLP[Ile(3ξ)]VAKLLSKLL-NH2)
MIC [1]: 4 µM (≈ 5.82 µg/mL)
MHC10 [2]: 17.97 µM
MIC [3]: > 128 µM
MIC [4]: > 128 µM
MIC [5]: > 128 µM
MIC [6]: 8 µM (≈ 11.6 µg/mL)

CCC(C)[C@H](NC(=O)[C@@H]1CCCN1C(=O)[C@H](CC(C)C)NC(=O)[C@@H](N)Cc1ccccc1)C(=O)N[C@H](C(=O)N[C@@H](CCCCN)C(=O)N[C@@H](CCCCN)C(=O)N[C@@H](CC(C)C)C(=O)N[C@@H](CC(C)C)C(=O)N[C@@H](CCC(=O)O)C(=O)N[C@@H](CCCCN)C(=O)N[C@@H](CC(C)C)C(=O)N[C@@H](CC(C)C)C(N)=O)C(C)C (some centres not stated) (H-FLP[Ile(3ξ)]VKKLLEKLL-NH2)
MIC [1]: 4 µM (≈ 6.21 µg/mL)
MHC10 [2]: 42.55 µM
MIC [3]: 8 µM (≈ 12.4 µg/mL)
MIC [4]: 8 µM (≈ 12.4 µg/mL)
MIC [5]: 16 µM (≈ 24.8 µg/mL)
MIC [6]: 4 µM (≈ 6.21 µg/mL)

CCC(C)[C@H](NC(=O)[C@@H]1CCCN1C(=O)[C@H](CC(C)C)NC(=O)[C@@H](N)Cc1ccccc1)C(=O)N[C@H](C(=O)N[C@@H](CCCCN)C(=O)N[C@@H](CCCCN)C(=O)N[C@@H](CC(C)C)C(=O)N[C@@H](CC(C)C)C(=O)N[C@@H](CCCCN)C(=O)N[C@@H](CCC(=O)O)C(=O)N[C@@H](CC(C)C)C(=O)N[C@@H](CC(C)C)C(N)=O)C(C)C (some centres not stated) (H-FLP[Ile(3ξ)]VKKLLKELL-NH2)
MIC [1]: 4 µM (≈ 6.21 µg/mL)
MHC10 [2]: 53.73 µM
MIC [3]: 8 µM (≈ 12.4 µg/mL)
MIC [4]: 8 µM (≈ 12.4 µg/mL)
MIC [5]: 16 µM (≈ 24.8 µg/mL)
MIC [6]: 4 µM (≈ 6.21 µg/mL)

CO[C@H]1/C=C/O[C@@]2(C)Oc3c(C)c(O)c4c(O)c(c(/C=N/N5CCN(C)CC5)c(O)c4c3C2=O)NC(=O)/C(C)=C\C=C\[C@H](C)[C@H](O)[C@@H](C)[C@@H](O)[C@@H](C)[C@H](OC(C)=O)[C@@H]1C [RIFAMPIN]
MIC [1]: < 1 µM
Activity [7]: Active
fold change (FC) [8]: 16
fold change (FC) [9]: 4096
MIC [3]: 32 µM (≈ 26.3 µg/mL)
Activity [10]: Active
Activity [11]: Active
MIC [4]: 4 µM (≈ 3.29 µg/mL)
Activity [12]: 3.45%
MIC [5]: 32 µM (≈ 26.3 µg/mL)
Activity [13]: 17.4%
Stability [14]: Stable
Activity [15]: Active
MIC [6]: < 1 µM

GENTAMICIN
fold change (FC) [8]: 128
fold change (FC) [9]: 512
